# Source: patent US20170114030A1, “COMPOSITION WITH HIGH CONTENT OF CYCLIC DIPEPTIDE” (SUNTORY HOLDINGS LIMITED, priority 2014, published 2017)
# Test system: NCI-H716 cells
# Assay: In vitro GLP-1 secretion-accelerating action (active GLP-1 ELISA)
# Type: cell-based
# Conditions: for Significant difference (p < 0.05) vs control group, amount of active GLP-1 secreted: 1 hour, Student's t-test; for Amount of active GLP-1 secreted (relative value to control group as 100), Average value: after 1 hour, group with no cyclic dipeptide = 100
# Experimental: In the Test Examples below, data were represented as average value±standard error. In Test Examples 1, 2, and 3, a Student's t-test was used for a statistical test, and in other Test Examples, one-way ANOVA was carried out for dispersion analysis followed by a multiple comparison test by using a Dunnet's test. […] All of these analyses were carried out by using an SPSS for Windows release 17.0 (manufactured by SPSS Inc.).
# Among the cyclic dipeptides, 92 highly water-soluble cyclic dipeptides were used in the following experiment. In each well of a Poly-L-Lysine 96-well plate, NCI-H716 cells suspended in 100 μL of a DMEM (with 10% FBS, 2 mM glutamine, and 1% antibiotics added in advance) were seeded at 0.5×10^5 cells/well, and cultured in a CO2 incubator (manufactured by ESPEC CORP.) for 48 hours. After washing with PBS(+), 100 μL of a PBS(+) solution with each cyclic dipeptide at a final concentration of 10 mM and 10 μM of Sitagliptin phosphate added therein was added to the cells. After 1 hour, the resultant solution was recovered, and the amount of active GLP-1 in the solution was measured by using the ELISA kit. In the analysis, the amount of active GLP-1 for a group with no cyclic dipeptide added was defined as 100, and relative values thereto were used.
# In each Table, cyclic dipeptides for which an in vitro active GLP-1 secretion-accelerating activity was found and was not found are listed.
# [1] = Experiment 3, cyclic dipeptide 10 mM with 10 μM Sitagliptin phosphate
# [2] = Experiment 4, cyclic dipeptide 10 mM with 10 μM Sitagliptin phosphate
Compound,"Significant difference (p < 0.05) vs control group, amount of active GLP-1 secreted (Experiment 3, 10 mM)","Amount of active GLP-1 secreted (relative value to control group as 100), Average value [1]","Significant difference (p < 0.05) vs control group, amount of active GLP-1 secreted (Experiment 4, 10 mM)","Amount of active GLP-1 secreted (relative value to control group as 100), Average value [2]"
N=C(N)NCCCC1NC(=O)C(Cc2cnc[nH]2)NC1=O (centres unmarked) [compound 112],No,106,,
CC1NC(=O)C(CCC(=O)O)NC1=O (centres unmarked) [compound 113],No,157,,
N=C(N)NCCCC1NC(=O)CNC1=O (centres unmarked) [compound 117],No,98,,
CC1NC(=O)C(CC(N)=O)NC1=O (centres unmarked) [compound 124],No,116,,
NC(=O)CCC1NC(=O)CNC1=O (centres unmarked) [compound 126],Yes,210,,
NC(=O)CC1NC(=O)C(CCC(=O)O)NC1=O (centres unmarked) [compound 129],No,118,,
NC(=O)CCC1NC(=O)C(CCC(=O)O)NC1=O (centres unmarked) [compound 130],No,120,,
NC(=O)CCC1NC(=O)C(CO)NC1=O (centres unmarked) [compound 136],No,251,,
CC1NC(=O)C(CC(=O)O)NC1=O (centres unmarked) [compound 153],No,94,,
O=C1CNC(=O)C(CO)N1 (centres unmarked) [compound 154],No,116,,
N=C(N)NCCCC1NC(=O)C(CO)NC1=O (centres unmarked) [compound 159],Yes,135,,
CC(O)C1NC(=O)C(CC(=O)O)NC1=O (centres unmarked) [compound 165],No,140,,
CC(O)C1NC(=O)C(CC(N)=O)NC1=O (centres unmarked) [compound 166],No,149,,
CC(O)C1NC(=O)C(CCC(N)=O)NC1=O (centres unmarked) [compound 167],No,156,,
CC(O)C1NC(=O)C(CCCNC(=N)N)NC1=O (centres unmarked) [compound 168],No,142,,
NC(=O)CC1NC(=O)C(CC(=O)O)NC1=O (centres unmarked) [compound 170],No,125,,
CSCCC1NC(=O)C(CCC(N)=O)NC1=O (centres unmarked) [compound 186],,,Yes,191
N=C(N)NCCCC1NC(=O)C(Cc2c[nH]c3ccccc23)NC1=O (centres unmarked) [compound 189],,,Yes,314
O=C(O)CCC1NC(=O)C(CO)NC1=O (centres unmarked) [compound 192],,,,993
N=C(N)NCCCC1NC(=O)C(CC(N)=O)NC1=O (centres unmarked) [compound 197],,,Yes,359
N=C(N)NCCCC1NC(=O)C(CCCNC(=N)N)NC1=O (centres unmarked) [compound 212],,,Yes,1050
